Broadly, the IC50 is the concentration that gives 50% inhibition.

Where two headings read alike, the source gives them in different places.

The target of one experiment is T1, hSERT (Homo sapiens, UniProt P31645).
T1 construct: expressed in transfected cells; host or cells: HEK-293 cells (crude membrane preparation)
Put plainly: SERT radioligand binding assay. On the procedure:
(§1) NK-1 Binding assay. Crude membrane suspensions were prepared for the NK1 and SERT radioligand binding assays from U373 cells or recombinant HEK-293 cells expressing hSERT, respectively. Cells were harvested from T-175 flasks as follows. The medium is removed from the flasks and the cells rinsed with HBSS without Ca and without Mg. The cells are then incubated for 5-10 minutes in 10 mM Tris-Cl, pH 7.5, 5 mM EDTA before the cells are lifted with a combination of pipetting and scraping, as needed. To prepare membranes, the cell suspension is collected into centrifuge bottles and homogenized for 30 seconds with a Polytron homogenizer. The suspension is centrifuged for 30 min @ 32,000×g, 4° C., then the supernatant is decanted and the pellet resuspended and homogenized in 50 mM Tris-Cl, pH 7.5, 1 mM EDTA for 10 seconds. The suspension is then centrifuged again for 30 min @ 32,000×g, 4° C. The supernatant is decanted and the pellet resuspended in 50 mM Tris-Cl, pH 7.5, 1 mM EDTA and briefly homogenized. A Bradford assay (Bio-rad) is performed and the membrane preparation diluted to 2 mg/ml with 50 mM Tris-Cl, pH 7.5, 1 mM EDTA. Aliquots are prepared, and then frozen and stored at −80° C.
SERT radioligand binding assay. Compounds are dissolved in 100% DMSO at a concentration 100× the desired highest assay concentration, serially diluted 1:3 in 100% DMSO, and 0.4 ul/well of each solution is dispensed to a Nunc polypropylene, round bottom, 384 well plate. 100% inhibition is defined with 0.4 ul/well of 1 mM fluoxetine (Sigma F-132) dissolved in DMSO. 20 ul/well of a 2×HEK-hSERT membrane preparation (15 ug/ml in 50 mM Tris-Cl, pH 7.5, 120 mM NaCl, 5 mM KCl) and 20 ul/well of a 2× radioligand solution (520 pM [^125I]RTI-55 (Perkin-Elmer NEX-272) in 50 mM Tris-Cl, pH 7.5, 120 mM NaCl, 5 mM KCl) are added to each well and the reaction incubated for 1 hour at room temperature. The contents of the assay plate are then transferred to a Millipore MultiscreenHTS GF/B filter plate which has been pretreated with 0.5% PEI for at least one hour. The plate is vacuum filtered and washed with 7 washes of 100 ul/well of 50 mM Tris-Cl, pH 7.5, 120 mM NaCl, 5 mM KCl chilled to 4° C. The filtration and washing is completed in less than 90 s. The plates are air-dried overnight, 12 ul/well of MicroScint scintillation fluid added, and the plates counted in a Trilux.
(§2) Data analysis. The raw data are normalized to percent inhibition using control wells defining 0% (DMSO only) and 100% (selective inhibitor) inhibition which are run on each plate. Each plate is run in triplicate, and the concentration response curve thus generated is fit using the four-parameter dose response equation, Y=Bottom+(Top-Bottom)/(1+10̂((LogIC50−X)*HillSlope)) in order to determine the IC50 value for each compound. The radioligand concentration chosen for each assay corresponds to the Kd concentration determined through saturation binding analysis for each assay.

Another experiment has as its target T2, NK-1 (Homo sapiens, UniProt P25103).
T2 construct: 30 ul/well of a 2×U373 membrane preparation; endogenous in cells; host or cells: U373 cells (crude membrane preparation)
Put plainly: NK1 radioligand binding assay. The note with it: U373 membrane preparation, [125I]Substance P. Here is the method:
as §1
NK1 radioligand binding assay. Compounds are dissolved in 100% DMSO at a concentration 100× the desired highest assay concentration, serially diluted 1:3 in 100% DMSO, and 0.6 ul/well of each solution is dispensed to a Nunc polypropylene, round bottom, 384 well plate. 100% inhibition is defined with 0.6 ul/well of 1 mM L-733,060 (Sigma L-137) dissolved in DMSO. 30 ul/well of a 2×U373 membrane preparation (267 ug/ml in 100 mM Tris-Cl, pH 7.5, 6 mM MgCl2, 0.2% (v/v) Sigma mammalian protease inhibitor cocktail (Sigma P-8340), and 4 ug/ml chymostatin, Sigma C-7268) and 30 ul/well of a 2× radioligand solution (400 pM [^125I]Substance P (Perkin Elmer NEX-190) in 1% (w/v) BSA (Sigma A-2153), 0.1 mg/ml bacitracin, Sigma B-0125) are added to the well and the reaction incubated for 1 hour at room temperature. The contents of the assay plate are then transferred to a Millipore MultiscreenHTS GF/B filter plate which has been pretreated with 0.5% PEI for at least one hour. The plate is vacuum filtered and washed with 7 washes of 100 ul/well of 20 mM Tris-Cl, pH 7.5, 0.5% (w/v) BSA chilled to 4° C. The filtration and washing is completed in less than 90 s. The plates are air-dried overnight, 12 ul/well of MicroScint scintillation fluid added, and the plates counted in a Trilux.
as §2

Where [1] appears, read: HEK-hSERT membrane preparation, [125I]RTI-55, Table 1, read-out: SERT IC50.
The mark [2] stands for this setting: HEK-hSERT membrane preparation, [125I]RTI-55, Table 1a, single enantiomers, read-out: SERT IC50.

T1 sequence (P31645 whole entry): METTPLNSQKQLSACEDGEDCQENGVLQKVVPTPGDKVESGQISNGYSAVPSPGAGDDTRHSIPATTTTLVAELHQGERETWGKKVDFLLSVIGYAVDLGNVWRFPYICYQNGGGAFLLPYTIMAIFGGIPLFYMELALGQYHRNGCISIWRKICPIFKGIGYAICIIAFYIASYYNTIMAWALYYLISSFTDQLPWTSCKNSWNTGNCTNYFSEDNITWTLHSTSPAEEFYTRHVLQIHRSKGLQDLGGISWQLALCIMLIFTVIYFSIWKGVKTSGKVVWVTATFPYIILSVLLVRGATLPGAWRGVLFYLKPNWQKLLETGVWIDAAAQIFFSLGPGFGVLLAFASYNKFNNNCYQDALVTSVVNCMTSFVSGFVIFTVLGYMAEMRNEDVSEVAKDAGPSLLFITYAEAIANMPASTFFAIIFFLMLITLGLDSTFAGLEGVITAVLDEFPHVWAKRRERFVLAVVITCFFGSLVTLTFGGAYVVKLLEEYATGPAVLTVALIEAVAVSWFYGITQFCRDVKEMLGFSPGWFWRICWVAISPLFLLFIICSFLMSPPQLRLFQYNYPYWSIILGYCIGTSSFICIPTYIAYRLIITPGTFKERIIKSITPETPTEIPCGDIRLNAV
T2 sequence (P25103 whole entry): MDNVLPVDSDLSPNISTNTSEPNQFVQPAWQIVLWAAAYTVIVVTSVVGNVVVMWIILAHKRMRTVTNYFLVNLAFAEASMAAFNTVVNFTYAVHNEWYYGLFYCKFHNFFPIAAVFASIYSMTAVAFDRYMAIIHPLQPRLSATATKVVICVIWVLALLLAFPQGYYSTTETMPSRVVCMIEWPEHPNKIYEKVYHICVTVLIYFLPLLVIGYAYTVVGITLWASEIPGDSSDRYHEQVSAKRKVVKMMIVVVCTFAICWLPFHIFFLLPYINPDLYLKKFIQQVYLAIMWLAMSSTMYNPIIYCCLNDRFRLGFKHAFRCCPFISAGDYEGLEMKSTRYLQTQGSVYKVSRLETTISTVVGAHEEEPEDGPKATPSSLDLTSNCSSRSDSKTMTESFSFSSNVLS

As for `Cc1cc(COCC2(c3ccccc3)CCNCC2)c2ccccc2n1` [Example 1, 2-methyl-4-(((4-phenylpiperidine-4-yl)methoxy)methyl)quinoline], the values for the half-inhibitory concentration (IC50) on hSERT (setting [1]) and on NK-1 (Table 1) were 0.01 to 100 nM and over 300 nM, respectively.

In the case of `Cc1cc(COCC2(c3ccccc3)CCN(C)CC2)nc2ccccc12` [Example 4], the IC50 at hSERT lay in the range of 0.01 to 100 nM; at NK-1 (Table 1), 100 to 300 nM.

With `CC(OCC1(c2ccc(F)cc2)CCNCC1)c1cc(C(F)(F)F)cc2cccnc12` (centres unmarked) [Example 33], the IC50 at hSERT (setting [1]) and at NK-1 (Table 1) was 0.01 to 100 nM throughout.

Regarding `CC(OCC1(c2ccc(F)cc2)CCNCC1)c1cc(Br)cc2cccnc12` (single isomer, unassigned) [Example 77], the IC50 at hSERT (setting [2]) lay within 0.01 to 100 nM; on NK-1 (Table 1a, single enantiomers), 0.01 to 100 nM.

For `Cc1ccc2cc(COCC3(c4ccccc4)CCN(C)CC3)ccc2n1` [Example 10], the concentration for half-maximal inhibition (IC50) at hSERT (setting [1]) was 0.01 to 100 nM; on NK-1 (Table 1), over 300 nM.

For the compound `CC(OCC1(c2ccc(F)cc2F)CCN(C)CC1)c1cc(C(F)(F)F)cc2cccnc12` (centres unmarked) [Example 38], the IC50 on hSERT (setting [1]) and on NK-1 (Table 1) was 0.01 to 100 nM throughout.

As to `CC(OCC1(c2ccccc2)CCN(C)CC1)c1cc(C(F)(F)F)cc2cccnc12` (single isomer, unassigned) [Example 73], the IC50 lay in the range of 0.01 to 100 nM on hSERT (setting [2]) and 0.01 to 100 nM on NK-1 (Table 1a, single enantiomers).

On to `CC(OCC1(c2ccc(F)cc2F)CCNCC1)c1cc(C(F)(F)F)cc2cccnc12` (centres unmarked) [Example 37], for which the IC50 on hSERT (setting [1]) and at NK-1 (Table 1) was 0.01 to 100 nM each time.

For the compound `CN(C)c1cc(COCC2(c3ccccc3)CCNCC2)nc2cc(C(F)(F)F)ccc12` [Example 18, N,N-dimethyl-2-(((4-phenylpiperidin-4-yl)methoxy)methyl)-7-(trifluoromethyl)quinolin-4-amine], the concentration for half-maximal inhibition (IC50) is 0.01 to 100 nM on hSERT (setting [1]) and over 300 nM on NK-1 (Table 1).

For `CN1CCC(COCc2ccc3ccccc3n2)(c2ccccc2)CC1` [Example 6], the results for the IC50 on hSERT (setting [1]) and at NK-1 (Table 1) were 0.01 to 100 nM and over 300 nM, respectively.

Regarding `CC(OCC1(c2ccc(F)cc2)CCN(C)CC1)c1cc(Br)cc2cccnc12` (single isomer, unassigned) [Example 79], the IC50 is 0.01 to 100 nM at hSERT (setting [2]) and 0.01 to 100 nM on NK-1 (Table 1a, single enantiomers).

As to `Cc1cc(C(C)OCC2(c3ccc(F)cc3)CCN(C)CC2)c2[nH]c(=O)ccc2c1` (centres unmarked) [Example 53], the IC50 on hSERT (setting [1]) and at NK-1 (Table 1) was 0.01 to 100 nM each time.

Regarding `Cc1cc(COCC2(c3ccc(F)cc3)CCNCC2)c2ncccc2c1` [Example 29], the IC50 on hSERT (setting [1]) and on NK-1 (Table 1) was 0.01 to 100 nM throughout.

Turning to `Brc1cc(COCC2(c3ccccc3)CCNCC2)nc2ccccc12` [Example 13, 4-bromo-2-(((4-phenylpiperidin-4-yl)methoxy)methyl)quinoline], the IC50 fell in the range of 0.01 to 100 nM on hSERT (setting [1]) and 100 to 300 nM on NK-1 (Table 1).

With `Cc1cc(COCC2(c3ccccc3)CCN(C)CC2)c2ccccc2n1` [Example 2, 2-methyl-4-(((1-methyl-4-phenylpiperidin-4-yl)methoxy)methyl)quinoline], the values for the half-maximal inhibitory concentration (IC50) on hSERT and on NK-1 (Table 1) were 0.01 to 100 nM and over 300 nM, respectively.

Take `CC(OCC1(c2ccccc2)CCN(C)CC1)c1cc(C(F)(F)F)cc2cccnc12` (single isomer, unassigned) [Example 72]: the IC50 is 0.01 to 100 nM on hSERT and over 300 nM on NK-1 (Table 1a, single enantiomers).

For `Cc1cc(C(C)OCC2(c3ccc(F)cc3)CCN(C)CC2)c2nc(Cl)ccc2c1` (centres unmarked) [Example 49], the concentration for half-maximal inhibition (IC50) on hSERT (setting [1]) and at NK-1 (Table 1) was 0.01 to 100 nM each time.

Turning to `COc1ccc2cc(C)cc(C(C)OCC3(c4ccc(F)cc4)CCN(C)CC3)c2n1` (centres unmarked) [Example 50], the IC50 on hSERT (setting [1]) and on NK-1 (Table 1) was 0.01 to 100 nM each time.

As for `CNc1cc(COCC2(c3ccccc3)CCNCC2)nc2cccc(C(F)(F)F)c12` [Example 45, N-methyl-2-(((4-phenylpiperidin-4-yl)methoxy)methyl)-5-(trifluoromethyl)quinolin-4-amine], the IC50 on hSERT (setting [1]) was 0.01 to 100 nM; at NK-1 (Table 1), over 300 nM.

In the case of `Cc1cc(C(C)OCC2(c3ccc(F)cc3)CCNCC2)c2ncccc2c1` (centres unmarked) [Example 39], the IC50 at hSERT (setting [1]) and on NK-1 (Table 1) was 0.01 to 100 nM each time.

Turning to `Brc1cc(COCC2(c3ccccc3)CCNCC2)c2ncccc2c1` [Example 22], the concentration for half-maximal inhibition (IC50) on hSERT (setting [1]) and at NK-1 (Table 1) was 0.01 to 100 nM in each case.

With `Cc1ccc2c(C)cc(COCC3(c4ccccc4)CCNCC3)nc2c1` [Example 20], the 50% inhibitory concentration (IC50) at hSERT (setting [1]) was 0.01 to 100 nM; on NK-1 (Table 1) it was over 300 nM.

With `CC(OCC1(c2ccc(F)cc2)CCN(C)CC1)c1cc(C(F)(F)F)cc2cccnc12` (centres unmarked) [Example 34], the IC50 on hSERT (setting [1]) and at NK-1 (Table 1) was 0.01 to 100 nM throughout.

In the case of `CC(OCC1(c2ccc(F)cc2)CCNCC1)c1cc(C(F)(F)F)cc2cccnc12` (single isomer, unassigned) [Example 67], the IC50 on hSERT (setting [2]) is 0.01 to 100 nM; at NK-1 (Table 1a, single enantiomers) it was over 300 nM.

For `Cc1cc(C(C)OCC2(c3ccc(F)cc3)CCN(C)CC2)c2ncccc2c1` (single isomer, unassigned) [Example 76], the IC50 was 0.01 to 100 nM on hSERT (setting [2]) and 0.01 to 100 nM on NK-1 (Table 1a, single enantiomers).

With `Cc1cc(C(C)OCC2(c3ccc(F)cc3)CCN(C)CC2)c2nc(F)ccc2c1` (centres unmarked) [Example 52], the concentration for half-maximal inhibition (IC50) on hSERT (setting [1]) and on NK-1 (Table 1) was 0.01 to 100 nM each time.

On to `FC(F)(F)c1ccc2c(Cl)cc(COCC3(c4ccccc4)CCNCC3)nc2c1` [Example 17, 4-chloro-2-(((4-phenylpiperidin-4-yl)methoxy)methyl)-7-(trifluoromethyl)quinoline], for which the values for the IC50 at hSERT (setting [1]) and on NK-1 (Table 1) were 0.01 to 100 nM and over 300 nM, respectively.

Turning to `CC(OCC1(c2ccccc2)CCN(C)CC1)c1cc(C(F)(F)F)cc2cccnc12` (single isomer, unassigned) [Example 74], the IC50 on hSERT (setting [2]) was in the range of 0.01 to 100 nM; at NK-1 (Table 1a, single enantiomers), 0.01 to 100 nM.

For the compound `Cc1ccc2cc(COCC3(c4ccccc4)CCNCC3)ccc2n1` [Example 9], the IC50 is 0.01 to 100 nM on hSERT (setting [1]) and over 300 nM at NK-1 (Table 1).

Turning to `CN1CCC(COCc2cc(N)c3ccccc3n2)(c2ccccc2)CC1` [Example 8], the IC50 at hSERT was 0.01 to 100 nM; at NK-1 (Table 1), over 300 nM.

Consider `CC(OCC1(c2ccc(F)cc2)CCNCC1)c1cc(C(F)(F)F)cc2cccnc12` (single isomer, unassigned) [Example 68], for which the IC50 on hSERT (setting [2]) lay within 0.01 to 100 nM; at NK-1 (Table 1a, single enantiomers) it was 0.01 to 100 nM.

Regarding `CC(OCC1(c2ccc(F)cc2)CCN(C)CC1)c1cc(Br)cc2cccnc12` (single isomer, unassigned) [Example 78], the 50% inhibitory concentration (IC50) lay in the range of 0.01 to 100 nM on hSERT and 100 to 300 nM at NK-1 (Table 1a, single enantiomers).

Consider `N#Cc1ccc(-c2cc(COCC3(c4ccccc4)CCNCC3)c3ncccc3c2)cc1` [Example 24], for which the results for the IC50 at hSERT (setting [1]) and on NK-1 (Table 1) were 0.01 to 100 nM and over 300 nM, respectively.

`Cc1cc(COCC2(c3ccc(F)cc3F)CCN(C)CC2)c2ncccc2c1` [Example 28]: the 50% inhibitory concentration (IC50) lay in the range of 0.01 to 100 nM at hSERT and 100 to 300 nM at NK-1 (Table 1).

Source of the values: patent US20090018163A1, “Substituted Heterocyclic Ethers and Their Use in CNS Disorders” (Bristol-Myers Squibb Company, priority 2007, published 2009).
